Laboratory results published in the NIST ThermoML archive (doi:10.1021/je400055v).

Settings: Liquid, Vibrating tube method

Cc1ccccc1O [2-methylphenol]
Settings | mass density [kg/m3]
313.2 K, 1022 kPa | 1027.5
313.2 K, 2031 kPa | 1028.1
313.2 K, 3017 kPa | 1028.7
313.2 K, 4012 kPa | 1029.2
313.2 K, 5018 kPa | 1029.8
313.2 K, 6010 kPa | 1030.4
313.2 K, 7005 kPa | 1030.9
313.2 K, 8006 kPa | 1031.5
313.2 K, 9004 kPa | 1032
313.2 K, 10005 kPa | 1032.6
323.16 K, 1013 kPa | 1018.7
323.16 K, 2039 kPa | 1019.3
323.16 K, 3007 kPa | 1019.9
323.16 K, 4009 kPa | 1020.5
323.16 K, 5005 kPa | 1021.1
323.16 K, 6004 kPa | 1021.7
323.16 K, 6999 kPa | 1022.2
323.16 K, 8008 kPa | 1022.8
323.16 K, 9002 kPa | 1023.4
323.16 K, 10005 kPa | 1024
333.1 K, 1010 kPa | 1009.9
333.1 K, 2033 kPa | 1010.5
333.1 K, 3009 kPa | 1011.1
333.1 K, 4014 kPa | 1011.8
333.1 K, 5004 kPa | 1012.4
333.1 K, 5998 kPa | 1013
333.1 K, 7000 kPa | 1013.6
333.1 K, 8009 kPa | 1014.2
333.1 K, 9004 kPa | 1014.8
333.1 K, 10010 kPa | 1015.4
343.06 K, 1023 kPa | 1000.8
343.06 K, 2024 kPa | 1001.6
343.06 K, 3015 kPa | 1002.2
343.06 K, 4003 kPa | 1002.9
343.06 K, 5009 kPa | 1003.6
343.06 K, 6005 kPa | 1004.2
343.06 K, 7008 kPa | 1004.8
343.06 K, 8003 kPa | 1005.5
343.06 K, 8999 kPa | 1006.1
343.06 K, 10004 kPa | 1006.7
352.99 K, 1043 kPa | 991.9
352.99 K, 2000 kPa | 992.6
352.99 K, 3034 kPa | 993.3
352.99 K, 4015 kPa | 994
352.99 K, 5033 kPa | 994.6
352.99 K, 6007 kPa | 995.3
352.99 K, 7016 kPa | 996
352.99 K, 8006 kPa | 996.7
352.99 K, 9015 kPa | 997.3
352.99 K, 10014 kPa | 998
